This test concerns platelet-rich-plasma (PRP). The experiment in a line: Shear-induced platelet aggregation (SIPA) in platelet-rich-plasma, determined by turbidity. As to conditions: 10 μM; for Platelet aggregation rate (%) ( X ± SD): n=10, rat PRP, shear stress 15 Pa for 360 seconds, 37° C., PPP = 100%, pre-shear PRP = 0% aggregation, Control 54.400 ± 8.592; for anti-platelet aggregation activity compared with salvianolic acid B and aspirin: high shear stress-induced platelet activation and aggregation test. It counts as cell-based, Sprague-Dawley rats. The protocol:
Preparation of platelet-rich-plasma (PRP): Sprague-Dawley rats (350-450 g) were used as blood donors to collect anticoagulated blood. Collected blood samples were immediately transferred into a plastic tube anticoagulant ( 1/10 volume of 3.8% trisodium citrate, pH 7.4). The platelet-rich-plasma (PRP) was then prepared by centrifuging the blood at 300 rpm for 15 minutes. The platelet concentration was adjusted to a level of 5×10^5/μl by addition of homologous platelet-poor-plasma (PPP) obtained after further centrifugation of blood at 1500 rpm for 15 minutes. For getting sufficient amount of PRP, at least two rats have to be sacrificed each time to obtain a pooled PRP sample.
Shear-induced platelet aggregation (SIPA): Adjusted PRP was divided into different groups according to the experimental protocol, mixed with 10 μM of pubescenosides A, B, aspirin and Salvianolic acid B. HAAke Rheometer RS 600 (Thermo Haake Corp., Ltd., Germany) with sensor C60/0.5° was employed as shear generator. The rheometer has the benefit of controlling shear stress and with an accuracy of 1 μm by the automatic adjustment of the gap between cone and plate. The shear program for PRP is: preheating sample at 37° C., increasing stress level from 0 to 15 Pa in the duration of 30 seconds, and then maintaining the stress level at 15 Pa for 360 seconds. After shearing, PRP was transferred to a platelet aggregometer (Chrono-Log aggregometer, Model 560 CA, Chrono-Log Corp., U.S.A) and SIPA was determined by turbidity. Since platelet-poor-plasma (PPP) and the pre-shear PRP were used as the turbidity scales of 100% and 0% aggregation, respectively, the aggregative degree of post-shear PRP could be measured.

Molecules are shown by their SMILES. Marks after values point to notes of the source that are not given here.

The record followed here is US7419960B2, “Hemiterpene glycosides with anti-platelet aggregation activities from Ilex pubescens” (Hong Kong Baptist University, priority 2005, dated 2008).

Take `CC(=O)Oc1ccccc1C(=O)O` [Aspirin, aspirin, reference compound]: the “Platelet aggregation rate (%) ( X ± SD)” value is 44.700 ± 4.668 %.
As for `C=C(COC(=O)/C=C/c1ccc(O)c(O)c1)C(O)CO[C@@H]1O[C@H](CO)[C@@H](O)[C@H](O)[C@H]1O` (stereo partly drawn) [Pubescenoside A, 4-caffeoyloxy-2-hydroxy-3-methylene-butane-1-O-β-D-glucopyranoside], the “Platelet aggregation rate (%) ( X ± SD)” value is 36.550 ± 7.697*^▪▴ %; the “anti-platelet aggregation activity compared with salvianolic acid B and aspirin” value is recorded as “much stronger”.
The corresponding values for `C=C(CO)C(CO[C@@H]1OC(CO)[C@@H](O)C(O)C1O)OC(=O)/C=C/c1ccc(O)c(O)c1` (stereo partly drawn) [Pubescenoside B, 4-hydroxy-2-caffeoyloxy-3-methylene-butane-1-O-β-D-glucopyranoside] are 27.300 ± 10.263*^□ % and “much stronger”.
Consider `O=C(/C=C/c1ccc(O)c2c1[C@H](C(=O)O[C@H](Cc1ccc(O)c(O)c1)C(=O)O)[C@@H](c1ccc(O)c(O)c1)O2)O[C@H](Cc1ccc(O)c(O)c1)C(=O)O` [Salvianolic acid B, salvianolic acid B, reference compound], for which the “Platelet aggregation rate (%) ( X ± SD)” value is 39.650 ± 8.577 %.
